In PubChem BioAssay (NCI) one finds GI50 and TGI data, which are given here for 6 molecules.

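Results reflect a 48-hour exposure of cells in 96-well plates to compound at five concentrations. Abbreviation: GI50, concentration required for 50% inhibition of growth. The concentration for full growth arrest is given as TGI.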 Where only a bound is given, the exact number is not on record here.

Test systems include NCI-H226 lung; OVCAR-3 ovarian; DU-145 prostate; SK-MEL-28 melanoma; MCF7 breast; MALME-3M melanoma; HS 578T breast; U251 CNS; CCRF-CEM leukemia; NCI-H522 lung.
Holding throughout (assay): inhibition of tumour cell growth, NCI panel, 48 h

On to `COc1ccc2c(c1)CCC1C2CC[C@@]2(C)C1CC1=CC(COC(C)=O)C3C(=O)c4ccccc4C(=O)C3C12` (stereo not given in full), for which the GI50 with NCI-H226 lung is greater than 100 µM; in the experiment on OVCAR-3 ovarian, greater than 100 µM; with DU-145 prostate, greater than 100 µM; with SK-MEL-28 melanoma, greater than 100 µM; in the experiment with MCF7 breast, greater than 100000 nM; in the experiment with MALME-3M melanoma, greater than 100 µM. For the same molecule, the GI50 was 89 µM in the experiment on HS 578T breast, greater than 100 µM in the experiment on U251 CNS, greater than 100 µM with CCRF-CEM leukemia and greater than 100 µM in the experiment with NCI-H522 lung. Also, the TGI in the experiment with NCI-H226 lung, in the experiment with OVCAR-3 ovarian, with DU-145 prostate, in the experiment with SK-MEL-28 melanoma, with MCF7 breast and in the experiment with MALME-3M melanoma was greater than 100 µM each time. For the same molecule, the TGI in the experiment on HS 578T breast, in the experiment on U251 CNS, in the experiment on CCRF-CEM leukemia and with NCI-H522 lung was greater than 100 µM throughout.
For `Cc1ccc(Cl)cc1Nc1nc(C(F)(F)F)ccc1C(=O)N1CCN(c2ccc(F)cc2)CC1`, the GI50 with NCI-H226 lung is 15.5 µM; with OVCAR-3 ovarian, 10.7 µM; in the experiment with DU-145 prostate it was 17.4 µM; with SK-MEL-28 melanoma, 15.6 µM; in the experiment on MCF7 breast, 11700 nM; with MALME-3M melanoma, 11.1 µM. Moreover, the GI50 was 4.31 µM in the experiment on HS 578T breast, 12.5 µM with U251 CNS, 15.1 µM in the experiment on CCRF-CEM leukemia and 12.3 µM with NCI-H522 lung. In addition, the TGI in the experiment with NCI-H226 lung was 31.3 µM; in the experiment with OVCAR-3 ovarian, 24 µM; in the experiment on DU-145 prostate it was 36.6 µM; in the experiment on SK-MEL-28 melanoma it was 29.3 µM; in the experiment with MCF7 breast, 38.7 µM; in the experiment on MALME-3M melanoma, 23.4 µM. Besides, the TGI stood at 22.3 µM with HS 578T breast, 25.5 µM in the experiment with U251 CNS, 53.5 µM in the experiment with CCRF-CEM leukemia and 30.2 µM in the experiment with NCI-H522 lung.
For the molecule `COC(=O)/C=C/c1cc(O)c2oc(-c3ccc(O)c(O)c3)c(C(=O)OC)c2c1`, the GI50 in the experiment on NCI-H226 lung is 3.85 µM; in the experiment with OVCAR-3 ovarian, 0.147 µM; in the experiment with DU-145 prostate, 0.369 µM; with SK-MEL-28 melanoma it was 1.92 µM; in the experiment on MCF7 breast, 286 nM; with MALME-3M melanoma it was 0.397 µM. Further, the GI50 in the experiment on HS 578T breast is 0.405 µM; in the experiment on U251 CNS, 0.606 µM; in the experiment with CCRF-CEM leukemia it was 0.402 µM; in the experiment on NCI-H522 lung it was 0.0472 µM. Moreover, the TGI in the experiment with NCI-H226 lung came to 22.3 µM; with OVCAR-3 ovarian, 3.43 µM; in the experiment on DU-145 prostate, 12 µM; in the experiment with SK-MEL-28 melanoma it was 11.1 µM; in the experiment on MCF7 breast, 9.75 µM; in the experiment on MALME-3M melanoma, 14.4 µM. Further, the TGI in the experiment with HS 578T breast is 9.18 µM; with U251 CNS it was 13.4 µM; in the experiment on CCRF-CEM leukemia, greater than 21.8 µM; in the experiment with NCI-H522 lung, 4.72 µM.
Take `COc1ncnc(C2CC2)c1-c1ncc2cnn(Cc3ccc(-c4nc(C(F)(F)F)cn4C(C)C)cc3)c2n1`: the GI50 is 9.08 µM with NCI-H226 lung; 22.2 µM with OVCAR-3 ovarian; 22.1 µM with DU-145 prostate; 19.1 µM with SK-MEL-28 melanoma; 17300 nM in the experiment on MCF7 breast; 17.8 µM in the experiment with MALME-3M melanoma. Besides, the GI50 is 17.8 µM in the experiment on HS 578T breast, 25.7 µM in the experiment on U251 CNS, 34 µM with CCRF-CEM leukemia and 8.52 µM in the experiment with NCI-H522 lung. The TGI is 50.7 µM in the experiment on NCI-H226 lung; 76.5 µM in the experiment with OVCAR-3 ovarian; greater than 100 µM in the experiment with DU-145 prostate; 71.3 µM in the experiment with SK-MEL-28 melanoma; 57.4 µM with MCF7 breast; 57.3 µM in the experiment on MALME-3M melanoma. Further, the TGI with HS 578T breast is greater than 100 µM; with U251 CNS, greater than 100 µM; in the experiment with CCRF-CEM leukemia it was greater than 100 µM; with NCI-H522 lung it was 48.3 µM.
With `Cc1ccc(C(SCC(N)C(=O)O)(c2ccccc2)c2ccc(C)cc2)cc1` (stereo not given), the GI50 in the experiment on NCI-H226 lung was 3.02 µM; in the experiment with OVCAR-3 ovarian, 0.192 µM; in the experiment on DU-145 prostate, 0.287 µM; with SK-MEL-28 melanoma, 2.09 µM; in the experiment on MCF7 breast, 52.4 nM; with MALME-3M melanoma, 2.57 µM. Besides, the GI50 with HS 578T breast is 0.0485 µM; with U251 CNS, 0.101 µM; with CCRF-CEM leukemia it was 0.341 µM; with NCI-H522 lung, 0.132 µM. For the same molecule, the TGI in the experiment with NCI-H226 lung worked out at 25.8 µM; with OVCAR-3 ovarian it was 2.64 µM; in the experiment on DU-145 prostate it was 2.66 µM; in the experiment with SK-MEL-28 melanoma, 23.7 µM; in the experiment on MCF7 breast it was 15.4 µM; with MALME-3M melanoma, 22.1 µM. Besides, the TGI in the experiment on HS 578T breast was 2.17 µM; in the experiment on U251 CNS, 15.5 µM; in the experiment with CCRF-CEM leukemia, greater than 75.7 µM; with NCI-H522 lung, 2.58 µM.
Consider `CCOc1nc(-c2ccccc2)cc2c(O)c(-c3nnco3)[nH]c(=O)c12`, for which the GI50 in the experiment with NCI-H226 lung is 6.25 µM; in the experiment on OVCAR-3 ovarian, 4.42 µM; in the experiment on DU-145 prostate, 5.3 µM; in the experiment with SK-MEL-28 melanoma, 30.9 µM; in the experiment on MCF7 breast, 507 nM; in the experiment with MALME-3M melanoma, 7.58 µM. Besides, the GI50 is 5.39 µM with HS 578T breast, 4.41 µM with U251 CNS, 3.04 µM in the experiment with CCRF-CEM leukemia and 3.09 µM in the experiment with NCI-H522 lung. The TGI with NCI-H226 lung, in the experiment on OVCAR-3 ovarian, in the experiment on DU-145 prostate, with SK-MEL-28 melanoma, with MCF7 breast and in the experiment with MALME-3M melanoma was greater than 100 µM each time. For the same molecule, the TGI was 30.1 µM in the experiment with HS 578T breast, greater than 43.7 µM in the experiment with U251 CNS, greater than 100 µM with CCRF-CEM leukemia and greater than 100 µM with NCI-H522 lung.
